Measurements published in article PMC10144134, “Characterization of Potent ABCG2 Inhibitor Derived from Chromone: From the Mechanism of Inhibition to Human Extracellular Vesicles for Drug Delivery” (Pharmaceutics, 2023).
“Also recorded” adds a separate entry of the source.

Tests used:
HEK293 WT cells = assay: MTT cell viability, HEK293 WT; type: cell-based, human; conditions: SN38 10 nM, 72 h
Protocol: (§1) HEK293 WT (wild type) and HEK293-ABCG2 cells were seeded (2.5 × 10^4 cell/well) into a 96-well plate and incubated for 24 h. Cells were concomitantly treated with EVs […]C4a (0.1, 1 and 10 μM) and SN-38 (10 nM) for 72 h. After this period, the medium was removed, cells were washed with PBS (100 μL) and incubated with MTT solution (100 μL of solution 0.5 mg/mL in PBS) for 4 h. Then, the solution was removed, and the formazan crystals were dissolved with 100 μL of ethanol/DMSO (1:1). The absorbance was measured using a microplate reader at 595 nm (Bio-Rad iMark, Hercules, CA, USA).

HEK293-ABCG2 cells = assay: MTT chemosensitization assay, HEK293-ABCG2; type: cell-based, human
Protocol: as §1

P-gp [1] = biological target: T1, P-gp (Homo sapiens, UniProt P08183); assay: Cell-based transport assay by flow cytometry, NIH3T3-ABCB1; conditions: 10 µM, rhodamine 123 10 µM
Protocol: (§2) Cell lines (HEK293-ABCG, NIH3T3-ABCB1 and BHK21-ABCC1) were kept at 37 °C in the presence of 5% CO2 in DMEM high glucose (Gibco, Sao Paulo, Brazil) supplemented with 10% Fetal Bovine Serum (Gibco, Sao Paulo, Brazil) and 1% antibiotic (penicillin/streptomycin–Hyclone Laboratories, Logan, UT, USA). The stably transfected cells were kept with specific selection agent for each ABC transporter: ABCG2–G418 0.75 mg/mL, P-gp–Colchicine 60 ng/mL, MRP1–Methotrexate 0.1 mg/mL. The cells HEK293-ABCG2, NIH3T3-ABCB1 and BHK21-ABCC1, overexpressing ABCG2, P-gp and MRP1, respectively, were kindly provided by Dr. Attilio Di Pietro (IBCP, Lyon, France).
Cells were seeded into 24-well plates at a density of 1 × 10^5 cells/well and incubated for 48 h at 37 °C and 5% of CO2. […] The intracellular fluorescence was recorded by flow cytometry (FACS Calibur–Becton Dickinson, San Diego, CA, USA). […] The inhibition percent was calculated as follows: % of inhibition = ((C − S))/((I − S)) × 100, where “C” represents the treatment with substrate + compound in test, “S” represents the treatment with substrate alone and “I” represents the treatment with substrate + reference inhibitor.
This study was approved by the Ethics Committee of SCS/UFPR (CAAE 51428521.2.0000.0102). […] The protein concentration was quantified by Bradford assay. […]

MRP1 = tested on: T2, MRP1; assay: Cell-based transport assay by flow cytometry, BHK21-ABCC1; design: species or system human; conditions: 10 µM, calcein-AM 0.2 µM
T2 construct: expressed in transfected cells; host or cells: BHK21 (stably transfected, methotrexate selection; gift of Dr. Attilio Di Pietro)
Protocol: as §2
Cells were seeded into 24-well plates at a density of 1 × 10^5 cells/well and incubated for 48 h at 37 °C and 5% of CO2. When the confluence reached 90–95%, the medium was removed and the cells were exposed to inhibitors and substrates for 30 min at 37 °C. […] The intracellular fluorescence was recorded by flow cytometry (FACS Calibur–Becton Dickinson, San Diego, CA, USA). […] The inhibition percent was calculated as follows: % of inhibition = ((C − S))/((I − S)) × 100, where “C” represents the treatment with substrate + compound in test, “S” represents the treatment with substrate alone and “I” represents the treatment with substrate + reference inhibitor.

Water solubility = type: physicochemical; conditions: aqueous
ABCG2 versus P-gp = biological target: T3, ABCG2 versus P-gp (Homo sapiens, UniProt Q9UNQ0); assay: in vitro; conditions: high-five membrane vesicles, pH 6.8
T3 sequence (Q9UNQ0 1-655): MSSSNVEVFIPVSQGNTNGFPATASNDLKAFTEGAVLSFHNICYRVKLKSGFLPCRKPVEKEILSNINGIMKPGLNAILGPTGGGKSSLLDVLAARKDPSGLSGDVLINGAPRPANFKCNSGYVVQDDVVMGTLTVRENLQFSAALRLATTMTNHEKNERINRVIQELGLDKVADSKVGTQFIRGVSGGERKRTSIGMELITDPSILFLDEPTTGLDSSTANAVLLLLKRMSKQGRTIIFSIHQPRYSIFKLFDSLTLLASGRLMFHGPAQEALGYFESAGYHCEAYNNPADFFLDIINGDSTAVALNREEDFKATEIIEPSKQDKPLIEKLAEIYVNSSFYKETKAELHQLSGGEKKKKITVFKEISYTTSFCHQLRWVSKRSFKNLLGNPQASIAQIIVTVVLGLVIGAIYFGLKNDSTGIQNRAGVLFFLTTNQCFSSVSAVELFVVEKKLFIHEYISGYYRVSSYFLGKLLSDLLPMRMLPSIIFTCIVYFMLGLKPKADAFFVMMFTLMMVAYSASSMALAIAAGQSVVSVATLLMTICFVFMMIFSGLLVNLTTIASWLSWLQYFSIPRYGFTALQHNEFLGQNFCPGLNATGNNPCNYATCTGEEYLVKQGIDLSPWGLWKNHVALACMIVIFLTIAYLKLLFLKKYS
Protocol: (§4) The absorbance was measured after 10 min incubation at room temperature using the spectrophotometer Ultrospec 3100 pro (Amersham Biosciences, Amersham, UK) at 880 nm wavelength.

P-gp [2] = biological target: T1, P-gp; assay: ATPase activity, High-Five P-gp total membrane vesicles
Protocol: as §4

ABCG2 [3] = biological target: T4, ABCG2 (Homo sapiens, UniProt Q9UNQ0); assay: ATPase activity, High-Five ABCG2 total membrane vesicles
T4 sequence (Q9UNQ0 1-655): T3 sequence (Q9UNQ0 1-655)
Protocol: as §4

P-gp [4] = biological target: T1, P-gp; assay: Thermostabilization assay on ATPase activity of P-gp; type: biochemical; design: made in house; host or cells: High-Five insect cells (total membrane vesicles); conditions: C4a 10 μM
Protocol: (§3) The thermal stability assay was performed according to previous reports. […] To evaluate the effect of C4a over thermal stability, each sample was prepared with 12.5 mM MgCl2 or 6.25 mM ATP and incubated at a temperature ranging from 37 to 71 °C for 10 min using a thermocycler C1000 Touch (Bio-Rad, Hercules, CA, USA). After incubation, 10 µL of 25 mM ATP or 50 mM MgCl2 (5 and 10 mM final concentration, respectively) was added and incubated at 37 °C/20 min to allow ATP hydrolysis. The reaction was stopped with the addition of 50 µL of Pi reagent containing 1% ammonium molybdate, 2.5 N H2SO4 and 0.014% potassium-antimony tartrate. To evaluate the absorbance, the samples were transferred to a 96-well plate (50 µL/well), then 150 µL of 0.33% sodium ascorbate solution was added. The absorbance was measured after 10 min incubation at room temperature using the microplate reader Spectramax iD3 (Molecular Devices, San Jose, CA, USA). The sensitive activity to vanadate (Vi) was calculated as the difference between the activity in the absence of Vi minus the activity in the presence of Vi at each temperature.

ABCG2 [5] = biological target: T4, ABCG2; assay: Thermostabilization assay on ATPase activity of ABCG2; type: biochemical; design: expressed in transfected cells; host or cells: HEK293 (stably transfected, G418 selection; gift of Dr. Attilio Di Pietro); conditions: C4a 10 μM
Protocol: as §3

ABCG2 [6] = biological target: T4, ABCG2; assay: Cell-based transport assay by flow cytometry, HEK293-ABCG2; design: expressed in transfected cells; host or cells: HEK293 (stably transfected, G418 selection; gift of Dr. Attilio Di Pietro)
Protocol: as §2
Cells were seeded into 24-well plates at a density of 1 × 10^5 cells/well and incubated for 48 h at 37 °C and 5% of CO2. When the confluence reached 90–95%, the medium was removed and the cells were exposed to inhibitors and substrates for 30 min at 37 °C. Then, the cell monolayer was washed with PBS at 37 °C, trypsinized and resuspended with 300 µL of cold PBS. The intracellular fluorescence was recorded by flow cytometry (FACS Calibur–Becton Dickinson, San Diego, CA, USA). At least 10,000 events were acquired. […] The inhibition percent was calculated as follows: % of inhibition = ((C − S))/((I − S)) × 100, where “C” represents the treatment with substrate + compound in test, “S” represents the treatment with substrate alone and “I” represents the treatment with substrate + reference inhibitor.
This study was approved by the Ethics Committee of SCS/UFPR (CAAE 51428521.2.0000.0102). Human blood (9 mL) was collected in tubes containing 8 mM of EGTA and centrifuged at 425× g for 10 min at room temperature. Human plasma (~4 mL) was separated in a new tube. In the tube containing blood cells (~5 mL), the same volume of RPMI (~5 mL) was added. The material was homogenized and centrifuged at 425× g for 10 min at room temperature. The supernatant was discarded, and the pellet of cells was centrifuged again at 425× g for 10 min, then, the supernatant was discarded, and the pellet was suspended in 5 mL of RPMI containing 2 mM of CaCl2. After 1 h of incubation at 37 °C, the material was centrifuged at 425× g for 10 min at 10 °C. Additionally, the tube containing the human plasma was also centrifuged at 425× g for 10 min at 10 °C. The supernatant from both tubes (human cells and plasma) was centrifuged at 4000 g for 10 min at 10 °C. The supernatant was separated and centrifuged at […] for 120 min at 10 °C. The supernatant was discarded and the pellet containing the vesicles was suspended in 60 µL of PBS. The protein concentration was quantified by Bradford assay. For each condition, 10 µL of the vesicles in PBS was diluted by adding 190 µL of PBS. […]

ABCG2 [7] = biological target: T4, ABCG2; assay: Cell-based transport assay by confocal microscopy; design: expressed in transfected cells; host or cells: HEK293 (stably transfected, G418 selection; gift of Dr. Attilio Di Pietro); conditions: 10 µM, hoechst 33342 2 µM
Protocol: Cells were seeded into 24-well plates at a density of 1 × 10^5 cells/well containing coverslips for microscopy and incubated for 48 h at 37 °C and 5% of CO2. Cells that adhered to the coverslips were treated with C4a and hoechst 33342 for 30 min at 37 °C. Then, the cell monolayer was washed with PBS at 37 °C and the coverslips removed from the plate and placed on slides for microscopy. The slides were then read in a confocal microscope Nikon A1R MP + (NIKON, Tokyo, Japan) using an oil-immersed 40× objective (with the numerical aperture of 1.15). A laser of 405 nm was used for excitation and the fluorescence emission was recorded using a bandpass filter of 425–475 nm. The software Nis Elements 4.20 (NIKON, Tokyo, Japan) was used for visualization of the images.

ABCG2 [8] = biological target: T4, ABCG2; assay: 5D3 shift assay; type: cell-based; design: expressed in transfected cells; host or cells: HEK293 (stably transfected, G418 selection; gift of Dr. Attilio Di Pietro); conditions: C4a 10 µM, Ko143 2 µM, HEK293-ABCG2
Protocol: HEK293-ABCG2 cells were seeded into 24-well plates at a density of 2 × 10^5 cells/well. When the confluence reached 90–95%, the medium was removed and the cells were exposed to inhibitors for 30 min at 37 °C. Then, the cell monolayer was washed with PBS at 37 °C, trypsinized and resuspended with 300 µL of PBS. Cells were centrifuged (1000× g for 3 min). The pellet was resuspended in 100 μL of PBS/BSA (40 μg/mL of BSA) and the primary antibody (mouse anti-human CD338 Clone 5D3, BD Pharmingen, San Diego, CA, USA) was added (1:100) for 30 min at 37 °C. Cells were centrifuged (1000× g, 3 min), the supernatant removed and the pellet resuspended with 100 μL of PBS containing the secondary antibody (goat anti-mouse conjugated with Phycoerythrin, BD Pharmingen, San Diego, CA, USA) at 1:200 for 30 min at 37 °C. Then, cells were centrifuged, the supernatant removed and the pellet was resuspended in 300 μL of PBS. The analysis was performed using a FACS Calibur (Becton Dickinson, San Diego, CA, USA).

ABCG2 [9] = biological target: T4, ABCG2; design: expressed in transfected cells; host or cells: HEK293 (stably transfected, G418 selection; gift of Dr. Attilio Di Pietro); conditions: read-out: IC50 of ABCG2 inhibition; cited from earlier work
[10] = tested on: implanted ABCG2-positive tumors; conditions: cited from earlier work
[11] = design: method as in PMID 17317193; conditions: cited from earlier work

T1 sequence (P08183 whole entry): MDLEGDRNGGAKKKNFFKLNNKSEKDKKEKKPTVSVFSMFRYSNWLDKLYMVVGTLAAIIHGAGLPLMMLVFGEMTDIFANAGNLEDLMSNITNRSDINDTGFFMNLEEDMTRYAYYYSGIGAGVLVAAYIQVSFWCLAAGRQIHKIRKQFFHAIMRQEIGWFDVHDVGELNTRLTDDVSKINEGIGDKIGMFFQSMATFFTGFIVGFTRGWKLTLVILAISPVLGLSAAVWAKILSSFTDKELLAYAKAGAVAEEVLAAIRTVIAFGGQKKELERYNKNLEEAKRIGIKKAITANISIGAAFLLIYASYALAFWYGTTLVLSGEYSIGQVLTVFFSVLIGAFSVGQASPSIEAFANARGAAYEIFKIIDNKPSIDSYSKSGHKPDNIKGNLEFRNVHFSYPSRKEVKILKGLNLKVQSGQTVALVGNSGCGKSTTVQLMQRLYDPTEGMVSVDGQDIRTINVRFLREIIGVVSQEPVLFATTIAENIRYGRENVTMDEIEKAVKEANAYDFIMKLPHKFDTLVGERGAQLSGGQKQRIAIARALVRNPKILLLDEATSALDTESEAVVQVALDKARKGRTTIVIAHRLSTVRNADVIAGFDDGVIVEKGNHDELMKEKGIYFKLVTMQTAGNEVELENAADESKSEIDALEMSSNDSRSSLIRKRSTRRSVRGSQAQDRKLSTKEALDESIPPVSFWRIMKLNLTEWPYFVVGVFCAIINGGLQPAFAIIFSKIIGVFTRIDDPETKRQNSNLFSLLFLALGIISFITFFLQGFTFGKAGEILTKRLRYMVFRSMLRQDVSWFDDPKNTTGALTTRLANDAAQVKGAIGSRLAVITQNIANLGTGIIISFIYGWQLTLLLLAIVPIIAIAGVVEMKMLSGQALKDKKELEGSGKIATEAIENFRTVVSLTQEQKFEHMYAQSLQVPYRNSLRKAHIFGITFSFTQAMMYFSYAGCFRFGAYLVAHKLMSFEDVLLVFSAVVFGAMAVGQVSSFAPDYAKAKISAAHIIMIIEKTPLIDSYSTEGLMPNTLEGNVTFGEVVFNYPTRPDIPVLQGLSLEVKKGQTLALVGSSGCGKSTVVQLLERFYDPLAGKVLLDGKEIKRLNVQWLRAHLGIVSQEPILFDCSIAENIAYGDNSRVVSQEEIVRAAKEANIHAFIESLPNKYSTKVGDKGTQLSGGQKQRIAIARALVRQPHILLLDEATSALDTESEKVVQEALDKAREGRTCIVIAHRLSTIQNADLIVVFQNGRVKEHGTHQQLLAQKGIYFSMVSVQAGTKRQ

SMILES: CCc1c2c(nc3ccc(O)cc13)-c1cc3c(c(=O)n1C2)COC(=O)[C@]3(O)CC [SN38, reference compound]
- cytotoxic effect on wild-type HEK293 cells (HEK293 WT cells): highly cytotoxic
- cell viability of cells overexpressing ABCG2 (HEK293-ABCG2 cells; SN38 10 nM, 72 h, MTT): mild decrease in the cell viability

SMILES: COc1ccc2[nH]cc(CCNC(=O)c3cc(=O)c4c(OCc5ccccc5Br)cccc4o3)c2c1 [C4a, chromone 4a]
- inhibition of rhodamine 123 efflux mediated by P-gp (P-gp [1]): did not inhibit
- inhibition of calcein efflux mediated by MRP1 (MRP1): did not inhibit
- reversion of the resistance phenotype mediated by ABCG2, supernatant (HEK293-ABCG2 cells; supernatant containing C4a free at 0.1 to 10 µM + SN38 10 nM): complete reversion
- solubility (Water solubility): low solubility
- selectivity ratio at 20 min (ABCG2 versus P-gp): 67
- EC50 (P-gp [2]): 4300 nM
- EC50 (ABCG2 [3]): 64 nM
- effect on ATP-induced thermostabilization of P-gp (P-gp [4]): preventing thermostabilization
- IT50, P-gp -ATP (P-gp [4]; absence of ATP): 50.02 ± 0.31 ºC
- effect on thermal stability of ABCG2 (ABCG2 [5]): mild effect
- IT50, ABCG2 -ATP (ABCG2 [5]; absence of ATP): 50.01 ± 0.26 ºC
- IT50 (temperature that reduces 50% of the ATPase activity), ABCG2 +ATP (ABCG2 [5]; presence of ATP): 55.44 ± 0.25 ºC
- inhibition of bodipy-prazosin efflux mediated by ABCG2 (ABCG2 [6]; 10 µM, bodipy-prazosin 0.2 µM): inhibited the efflux of all
- inhibition of mitoxantrone efflux mediated by ABCG2 (ABCG2 [6]; 10 µM, mitoxantrone 10 µM, HEK293-ABCG2): completely inhibited; also recorded: inhibited the efflux of all
- inhibition of pheophorbide-a efflux mediated by ABCG2 (ABCG2 [6]; 10 µM, pheophorbide a 10 µM): inhibited the efflux of all
- inhibition of ABCG2 by supernatant (human EV preparation) (ABCG2 [6]; C4a free in supernatant, even at lower concentration tested 0.1 µM): strongly inhibited ABCG2
- inhibition of hoechst 33342 efflux mediated by ABCG2 (confocal microscopy) (ABCG2 [7]): inhibited the efflux of all
- binding of conformational antibody 5D3 (ABCG2 [8]): increased the binding of 5D3
- IC50 (ABCG2 [9]): 86 nM

SMILES: COc1ccc2[nH]cc(CCNC(=O)c3cc(=O)c4c(OCc5ccc(Br)cc5)cccc4o3)c2c1 [MBL-II-141]
- solubility (Water solubility): low solubility
- growth of implanted ABCG2-positive tumors in mice ([10]; in combination with irinotecan): inhibiting the growth of implanted ABCG2-positive tumors
- IC50 (ABCG2 [9]): 260 nM

SMILES: COc1ccc2c(=O)c3cccc(C(=O)NCc4ccc(OC)c(OC)c4)c3[nH]c2c1 [MBLI-87]
- cytotoxicity [11]: low cytotoxicity
- sensitization of xenografic tumors overexpressing ABCG2 to irinotecan [10]: successfully sensitized xenografic tumors overexpressing ABCG2 to irinotecan
- IC50 (ABCG2 [9]): 450 nM
